The results in this text go back to paper PMC11969024, “Development of chemokine network inhibitors using combinatorial saturation mutagenesis” (Communications Biology, 2025).

The subject of the assay is J:CXCR1 cells (Jurkat cells stably transfected with CXCR1). Put plainly: J:CXCR1 cell migration induced by CXCL6, inhibition by peptide. It counts as cell-based, human. The settings on record: peptide 10 uM; CXCL6 at EC80; Dunnett's test. The method, then:
Cell lines were confirmed mycoplasma free by monthly testing using a MycoAlert^TM kit (LT07-118, Lonza) following the manufacturer’s instructions. THP1 cells: THP1 cells (ECACC 88081201, a human monocyte leukemia cell line[51]) were obtained from ECACC and were cultured in T175 flasks at 0.3-1 × 10^6 cells/mL in Roswell Park Memorial Institute (RPMI) 1640 medium (R0883, Sigma) with 10% FBS (F9665, Sigma) and 5mM L-glutamine (G7513, Sigma), 37 °C, 5% CO2. J:CXCR1 cells: The J:CXCR1 cell line was cultured in the same manner as THP1 cells at 0.15-1 × 10^6 cells per mL[37]. Activated T-cells: T-cells were isolated, activated and expanded as follows. Briefly, density gradient centrifugation using Lymphoprep^TM density gradient medium (07801, […] Technologies) and a SepMate^TM isolation tube (85450, […] Technologies) was used to isolate peripheral blood mononuclear cells from human leukocyte cones. Two rounds of purification using a human CD8 + T-cell isolation kit (480011, BioLegend) were used to isolate CD8 + T-cells from peripheral blood mononuclear cells. Activation of CD8 + T-cells was performed in ImmunoCult^TM-XF T-cell expansion medium (10982, […] Technologies) with an anti-CD3/anti-CD28 T-cell activator at 25 μl/ml (10991, […] Technologies), supplemented with 10 ng/ml recombinant human IL-2 (200-02, PeproTech) with 1% penicillin/streptomycin. […] The final pellet was resuspended in 1 mL of MACS buffer per 5 mL of initial blood volume and counted using cell size FSC-H/SSC-H parameters with gate settings previously defined by immunostaining (see below). […]
Cell counts were determined using an ATTUNE NxT Flow Cytometer with Cytkick autosampler (ThermoFisher), based on cell size parameters FSC-H/SSC-H, with previously defined gate settings. FSC-H/SSC-H gate settings for primary white blood cells from buffy coats were determined using flow cytometry to establish the granulocyte, monocyte and lymphocyte populations (Supplementary Fig. 13). […]

Take “EEDDYWAYAPLTCYFT [HD2T6W, HD2 point mutant]”: the “inhibition of CXCL6-induced migration of J:CXCR1 cells compared to parental HD2” value is “significant improvement in inhibition”.
